# Measurements: US20080152644A1, “Genes Involved in Neurodegenerative Conditions” (priority 2005, published 2008)
# Columns and labels:
# Assay type in all cases: in vivo, Drosophila
# [1] = tested on: transgenic flies expressing A-beta42; assay: Lifespan of transgenic flies expressing A-beta42 fed RAD001; conditions: fed every three days with 10, 20, 30 and 60 uM RAD001; effect seen even at the lowest concentration; FIG. 7
# Protocol: Flies were maintained in corn meal based standard fly food (Ashburner, 1989). Parental crosses were set up at 25° C. and F1 progeny was collected and raised at 29° C. (FIG. 1). Flies are crossed and maintained at 25° C. according to conventional methods except that all progeny are kept at 29° C. for maximal expression of phenotypes. In the binary Gal4 expression system, this temperature maximizes activity of the Gal4 protein. In the case of ElavGal4C^155/UAS-A-beta42, it is observed that the phenotype is stronger at 29° C., so these flies are kept at this temperature as well.
# For 2nd and 3rd chromosome P-element strains, crosses were set using male flies (about 10) from the P-element strain and virgin females (about 10) from the A-beta42 over-expressing strain (ElavGal4C^155/UAS-A-beta42). For X-chromosome P strains, about 10 virgin females were collected from individual P strains and mated with 10 males from the A-beta over-expressing strain. […] 10 vials with 20 progeny from each cross were kept at 29° C. and scored for viability and behavior phenotypes as well as for general morphological changes. For scoring, live flies were transferred to fresh vials and the dead flies were counted every 2-3 days. […]
# If successful, this treatment would provide the same beneficiary effect on A-beta42 induced toxicity found through genetic modification. […] Lifespan was scored until all the RAD001 fed flies died. […]
# [2] = tested on: A-beta42; assay: Sandwich ELISA of A-beta42 extracted from heads of transgenic flies fed RAD001; conditions: FIG. 8
# Protocol: Antibodies: Mouse monoclonal antibody directed to the NH2 terminus of the A-beta peptide was used as the capture antibody (Biosource Cat#44-352-100). The antibody was diluted in 1×PBS 1:2900 (3.5 μl/10 ml) and applied to Maxisorb Plates (Nunc Cat#442404) and 100 ul/96 well or 50 μl/384 well by incubating overnight at 4C. Polyclonal detection antibodies were obtained from Biosource (anti-hA-beta40 Cat#44-348 and anti-hA-beta42 Cat#44-344) and diluted 1/2000 in 1% BSA/PBS […]. The tertiary antibody (Santa Cruz Cat# SC2313) was a horseradish peroxidase labeled anti-rabbit IgG (Diluted 1/5000 in 1% BSA/PBS).
# Preparation of the A-beta standards: 2.31 g of sodium bicarbonate was dissolved in 500 mL of distilled water and the pH was adjusted to 9.0 with 2N sodium hydroxide. […]
# Indirect Two Sandwich ELISA: After the overnight incubation with capture antibody the plates were washed twice on a microplate washer (Bioteck Instruments, Inc) in 1×PBS/0.05% Tween 20/1 mM EDTA). […] The plates were read on a microplate reader at […] (Molecular Devices, Inc.) within one hour.
# The amount of A-beta42 from the heads of aged flies expressing A-beta42 was measured to see whether inactivation or reduced activation of Tor function affects the amount of A-beta42, such that it would correlate with the amelioration of A-beta42 induced toxicity. […]
# [3] = tested on: transgenic flies expressing A-beta42; assay: Climbing assay (locomotor activity) of RAD001 fed flies expressing A-beta42; conditions: RAD001 fed flies at 21 day, compared to placebo fed flies; data not shown
# Source text: For the locomotion assay, 20 flies of each experimental genotype were scored at 3, 10 and 15 days of age. Flies were transferred to fresh vials, tapped down and recorded for a few minutes until their climbing came to an equilibrium.
# In order to analyze locomotion activity, we used a “climbing assay” (Le Bourg E, Lints F A. (1992). Hypergravity and aging in Drosophila melanogaster. 4. Climbing activity. Gerontology. 38:59-64), which measures the negative geotropic response that flies naturally display. Groups of flies at different stages of adult life (3, 10, 15 days) from experimental and control groups were assayed. […] Three different UAS-A-beta42 strains were used, expressing different amounts of A-beta42 peptide (A-beta42^H29.3, A-beta42^HJ2.12, A-beta42^HJ2.19). Strains A-beta42^HJ2.12 and A-beta42^HJ2.19 express higher levels of the peptide than strain A-beta42^H29.3.
# If successful, this treatment would provide the same beneficiary effect on A-beta42 induced toxicity found through genetic modification. Flies expressing A-beta42 were fed every three days with 10 uM, 20 uM, 30 uM and 60 uM (where uM=10^−6 M) concentration of RAD001. Lifespan was scored until all the RAD001 fed flies died. The climbing assay was performed on RAD001 fed flies at 21 day, and compared to placebo fed flies.
compound,measurement,setting,value
CO[C@H]1C[C@@H]2CC[C@@H](C)[C@@](O)(O2)C(=O)C(=O)N2CCCC[C@H]2C(=O)O[C@H]([C@H](C)C[C@@H]2CC[C@@H](OCCO)[C@H](OC)C2)CC(=O)[C@H](C)/C=C(\C)[C@@H](O)[C@@H](OC)C(=O)[C@H](C)C[C@H](C)/C=C/C=C/C=C/1C [RAD001],lifespan of flies expressing A-beta42,[1],partial rescue of lifespan
same,total A-beta42,"[2]; flies dosed with 60 uM RAD001, heads of 13 day old flies",pronounced decrease
same,reduction of the amount of soluble A-beta42,"[2]; heads of 13 day old flies fed 10-60 uM RAD001 every three days, normalized to total protein, vs placebo",up to 42%
same,locomotor defect (climbing assay),[3],partially abrogated
